The test system of test [1] is maize plants (variety Burrus 616XLR). Briefly: Maize field trial Carlyle, Ill.: grain yield, Colby. The class given is in vivo. The source says: Maize was planted in 2009 at Carlyle, Ill., U.S.A. The variety Burrus 616XLR was planted at a conventional seeding rate and a row spacing of 76 cm. The trial was setup as a randomized bloc design with six replications. Plot size was 18 m^2. Pyraclostrobin was applied at developmental stage 34/37 (BBCH). Bacillus subtilis QST 713 (SERENADE® MAX) was applied to the maize plants at developmental stage 34/37 (BBCH) followed by a second application at developmental stage 55/57 (BBCH). Bacillus subtilis QST 713 (SERENADE® MAX) in combination with pyraclostrobin were applied as a tank mix at the developmental stage 34/37 (BBCH). The active ingredients were applied using commercial formulations SERENADE® MAX (14.3%, WP with 7.3×10^9 cfu/g) and HEADLINE® (250 g/L, EC). Total spray volume for foliar applications was 200 L/ha. […] At maturity the crop was harvested and grain yield was measured as t/ha (Table 10).
The expected yield increase by the combination of the active compounds was estimated using Colby's formula (Colby, S. R., “Calculating Synergistic and Antagonistic Responses of Herbicide Combinations,” Weeds, 15, pp. 20-22, 1967) and compared with the observed yield increase. […]

The test system of the next test is peas. Briefly: Pea seed treatment, greenhouse plant fresh weight, Colby. Type of test: in vivo. Particulars: 12 days at 20° C., pyraclostrobin 5 g/100 kg seed, SERENADE MAX 173 g/100 kg seed. How it is done: The active compounds were used applying commercially available formulations and diluted according to the concentrations/dose rates as stated in the respective data tables.
Seed treatment was done to seeds of peas using the Hege Seed Treatment equipment in a sequential approach. Pyraclostrobin was applied with a volume of 850 mL slurry per 100 kg seeds. Afterwards the stated amount of SERENADE® MAX was dissolved in a total volume of 8.3 L water (amount for 100 kg seeds) and applied sequentially in ten steps with drying of the seeds in between. The compounds were used as commercial finished formulations and diluted with water to the stated concentration of the active compound.
Seeds of peas were sown in soil (10 seeds/pot, 10 replications/treatment) and incubated in the greenhouse at 20° C. for 12 days. Plants were harvested and pooled per treatment and the plant fresh weight was determined.
The expected plant fresh weights of active compound mixtures were determined using Colby's formula as defined above [R. S. Colby, “Calculating Synergistic and Antagonistic Responses of Herbicide Combinations,” Weeds 15, 20-22 (1967)] and compared with the observed plant fresh weights.

As for `COC(=O)N(OC)c1ccccc1COc1ccn(-c2ccc(Cl)cc2)n1` [Pyraclostrobin, pyraclostrobin], the “Grain Yield (t/ha)” value in test [1] (maize, pyraclostrobin 0.44 L/ha solo (0.3 L/ha in mix) at BBCH 34/37, SERENADE MAX 3.0 kg/ha at 34/37 (solo also 55/57)) amounted to 8.32 t/ha. The “Observed Yield Increase (t/ha)” value in test [1] (vs untreated, same treatments) is 0.05 t/ha. Further, in the test with peas, the “Fresh Weight” value is listed as 47 g.

These data come from patent US9795138B2, “Method for increasing the vigor and/or crop yield of agricultural plants under essentially non-existent pathogen pressure” (Bayer CropScience LP, priority 2009, dated 2017).
